Here are results for two compounds from patent US10385014B2, “Acyloxyalkyl carbamate prodrugs, methods of synthesis and use” (ARBOR PHARMACEUTICALS, LLC, priority 2003, dated 2019).

For data set [1] the following is noted: animal models; cited from earlier work.
A short description of data set [2]: Chemical stability of prodrugs in aqueous buffers. Type of data set: physicochemical.
Description: (§1) The stabilities of prodrugs were evaluated in one or more in vitro systems using a variety of tissue preparations following methods known in the art. The chemical stability of prodrugs in aqueous buffers at pH's of 2.0, 7.4 and 8.0 were also measured. […] Each preparation was incubated with test compound at 37° C. for one hour. Aliquots (50 μL) were removed at 0, 30, and 60 min and quenched with 0.1% trifluoroacetic acid in acetonitrile. Samples were then centrifuged and analyzed by LC/MS/MS (see Example 86 below for method details).
A short description of data set [3]: Prodrug stability in rat plasma in vitro. Format: in vitro ADME. The conditions noted are these: 2.0 μM, 37° C.
Description: as §1
Data set [4] can be described thus: Prodrug stability in human plasma in vitro. Type of data set: in vitro ADME. The conditions noted are these: 2.0 μM, 37° C.
Description: as §1
Data set [5] is described as follows: Prodrug stability in rat liver S9. Type of data set: in vitro ADME. Conditions: Rat Liver S9 (0.5 mg/mL), 2.0 μM, NADPH, 37° C.
Description: as §1
Data set [6] can be described thus: Prodrug stability in human liver S9. Conditions: Human Liver S9 (0.5 mg/mL), 2.0 μM, NADPH, 37° C. Type of data set: in vitro ADME.
Description: as §1
Data set [7] in a line: Caco-2 homogenate S9 stability. Conditions: Caco-2 S9 (0.5 mg protein per mL), 5 μM, 37° C. Type of data set: in vitro ADME.
Description: Caco-2 Homogenate S9 Stability: Caco-2 cells were grown for 21 days prior to harvesting. Culture medium was removed and cell monolayers were rinsed and scraped off into ice-cold 10 mM sodium phosphate/0.15 M potassium chloride, pH 7.4. Cells were lysed by sonication at 4° C. using a probe sonicator. Lysed cells were then transferred into 1.5 mL centrifuge vials and centrifuged at 9000 g for 20 min at 4° C. The resulting supernatant (Caco-2 cell homogenate S9 fraction) was aliquoted into 0.5 mL vials and stored at −80° C. until used.
For stability studies, prodrug (5 μM) was incubated in Caco-2 homogenate S9 fraction (0.5 mg protein per mL) for 60 min at 37° C. Concentrations of intact prodrug and released baclofen were determined at zero time and 60 minutes using LC/MS/MS.
Another data set relates to pancreatin. Nature of the data set: Pancreatin stability. Type of data set: in vitro ADME, porcine. The conditions noted are these: 1% (w/v) pancreatin, 5 μM, pH 7.5, 37° C. Here is the method:
Pancreatin Stability: Stability studies were conducted by incubating prodrug (5 μM) with 1% (w/v) pancreatin (Sigma, P-1625, from porcine pancreas) in 0.025 M Tris buffer containing 0.5 M NaCl (pH 7.5) at 37° C. for 60 min. The reaction was stopped by addition of 2 volumes of methanol. After centrifugation at 14,000 rpm for […], the supernatant was removed and analyzed by LC/MS/MS.

For a further data set, the system named is Caco-2 cells. As to the kind of experiment: Caco-2 cellular permeability of prodrugs. Type of data set: in vitro ADME. The conditions noted are these: Caco-2 monolayer, ratio of Papp values.

Description for Caco-2 cells: For example, cellular permeability may be evaluated by examining the flux of a prodrug across a cultured polarized cell monolayer (e.g., Caco-2 cells). Caco-2 cells obtained from continuous culture (passage less than 28) were seeded at high density onto Transwell polycarbonate filters. Cells were maintained with DMEM/10% fetal calf serum+0.1 mM nonessential amino acids+2 mM L-Gln, 5% CO2/95% O2, 37° C. until the day of the experiment. Permeability studies were conducted at pH 6.5 apically (in 50 mM MES buffer containing 1 mM CaCl2, 1 mM MgCl2, 150 mM NaCl, 3 mM KCl, 1 mM NaH2PO4, 5 mM glucose) and pH 7.4 basolaterally (in Hanks' balanced salt solution containing 10 mM HEPES) in the presence of efflux pump inhibitors (250 μM MK-571, 250 μM Verapamil, 1 mM Ofloxacin). Inserts were placed in 12 or 24 well plates containing buffer and incubated for 30 min at 37 C.°. Prodrug (200 μM) was added to the apical or basolateral compartment (donor) and concentrations of prodrug and/or released parent drug in the opposite compartment (receiver) were determined at intervals over 1 hour using LC/MS/MS. Values of apparent permeability (Papp) were calculated using the equation: Papp=Vr(dC/dt)//(ACo)
Here Vr is the volume of the receiver compartment in mL; dC/dt is the total flux of prodrug and parent drug (μM/s), determined from the slope of the plot of concentration in the receiver compartment versus time; Co is the initial concentration of prodrug in μM; A is the surface area of the membrane in cm^2.

Regarding `NCC(CC(=O)O)c1ccc(Cl)cc1` (racemic) [Baclofen, (±)-4-Amino-3-(4-chlorophenyl)butanoic acid], the “absorption following administration into the colon” value in [1] is “poorly absorbed”.

On to `CCCC(=O)OCOC(=O)NC[C@H](CC(=O)[O-])c1ccc(Cl)cc1.[Na+]` [(16), Sodium 4-[(Butanoyloxymethoxy)carbonylamino]-(3R)-(4-chlorophenyl)-butanoate], for which the “% of Baclofen Released after 60 min” value in data set [2] (aqueous buffer pH 2.0, 37° C.) was 0%; in data set [2] (aqueous buffer pH 7.4, 37° C.), 0%; in data set [2] (aqueous buffer pH 8.0, 37° C.), 0%; in data set [3], 40%; in data set [4] it was 20%; in [5], 100%. The “% of Baclofen Released after 60 min” value in [6] and in data set [7] was 100% throughout. Further, the “% of Prodrug Remaining after 60 min” value in [2] (aqueous buffer pH 2.0, 37° C.) came to 100%; in data set [2] (aqueous buffer pH 7.4, 37° C.), 100%; in data set [2] (aqueous buffer pH 8.0, 37° C.), 100%; in [3] it was 54%; in data set [4], 62%; in [5] it was 1%. Moreover, the “% of Prodrug Remaining after 60 min” value (in [6]; in data set [7]; with pancreatin) was 1% throughout. Besides, in the data set with Caco-2 cells, the “Ratio A-B/B-A” value was 5.1.
